In BigSolDB 2.1:

CC1=NN(c2ccccc2)C(=O)C1
solubility (mole fraction)
Conditions	in 2,4-dimethylphenol	in DMSO	in NMP	in diglyme	in morpholine-4-carbaldehyde	in tetraglyme	in triglyme
298.15 K	0.0188	0.0758	0.0383	0.0205	0.0111	0.0463	0.0153
303.15 K	0.0282	0.122	0.0496	0.0269	0.0146	0.0863	0.022
308.15 K	0.0408	0.201	0.0694	0.0333	0.0176	0.131	0.0311
313.15 K	0.0565	0.298	0.0861	0.0416	0.0217	0.212	0.0457
